The numbers were not newly measured in patent US7897615B2 (Chugai Sciyaku Kabushiki Kaisha, priority 2003, dated 2011), which cites them from elsewhere.

Data set [1] concerns CPT-I muscle (M) isoform. The following applies: muscle isoform of CPT-I.
In data set [2] the test system is human breast cancer cells.

For the compound `CC(C)(COP(=O)(O)OP(=O)(O)OC[C@H]1O[C@@H](n2cnc3c(N)ncnc32)[C@H](O)[C@@H]1OP(=O)(O)O)[C@@H](O)C(=O)NCCC(=O)NCCSC(=O)CC(=O)O` [Malonyl-CoA], the IC50 in data set [1] was 30 nM.

`CCCCCCCCCCCCCCOc1ccc(C(=O)O)o1` [TOFA, 5-(tetradecyloxy)-2-furoic acid]: the antitumor activity entry in data set [2] is reported as “does not show any antitumor activity”. In addition, the malonyl-CoA level in data set [2] (breast carcinoma cells) is recorded as 60 % of the control.

The IC50 is the concentration at which inhibition is half-maximal.
